According to patent publication US7557213B2, “Substituted quinolones and methods of use” (ChemoCentryx, Inc., priority 2005, dated 2009):

Target: T1, CCXCKR2 receptor (Homo sapiens, UniProt P25106)
T1 construct: expressed in transfected cells; host or cells: MDA-MB-435S transfected with pcDNA3.1(+)-hRDC1 and/or MCF-7 (endogenous receptor)
Assay: Displacement of 125I-labeled SDF-1 from the CCXCKR2 receptor on MCF-7 and/or CCXCKR2-transfected MDA-MB-435S cells (radioligand binding, filtration)
Conditions: 125I SDF-1, 3 hr at 4° C., MCF-7 and/or MDA-MB-435S cells; read-out: Activity (concentration displacing at least 50% of the SDF-1 from the CCXCKR2 receptor)

T1 sequence (P25106 whole entry): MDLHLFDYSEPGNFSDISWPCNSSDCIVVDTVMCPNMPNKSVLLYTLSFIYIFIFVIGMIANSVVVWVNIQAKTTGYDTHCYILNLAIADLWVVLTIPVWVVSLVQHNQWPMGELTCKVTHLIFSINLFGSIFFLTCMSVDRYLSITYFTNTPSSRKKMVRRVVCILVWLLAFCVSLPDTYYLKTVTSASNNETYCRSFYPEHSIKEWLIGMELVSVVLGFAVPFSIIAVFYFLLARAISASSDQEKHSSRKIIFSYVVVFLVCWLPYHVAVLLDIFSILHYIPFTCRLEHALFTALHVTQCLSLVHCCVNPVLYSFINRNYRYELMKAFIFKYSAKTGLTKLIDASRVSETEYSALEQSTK

| IC50 | SMILES |
| --- | --- |
| < 0.1 µM | CN(C)c1cccc(C(=O)c2cn(Cc3cccc(Br)n3)c3ccccc3c2=O)c1 [Example 97] |
| < 0.1 µM | COc1ccc(C(=O)c2cn(Cc3cccc(Br)n3)c3ccccc3c2=O)cc1C [Example 98] |
| 0.1 to 0.5 µM | CNc1cccc(Cn2cc(C(=O)c3cnc(C)c(C)c3)c(=O)c3ccccc32)n1 [Example 99] |
| < 0.1 µM | O=C(c1ccc(Cl)c(Cl)c1)c1cn(Cc2cccc(Br)n2)c2ccccc2c1=O [Example 100] |
| < 0.1 µM | Cc1ccc(C(=O)c2cn(Cc3cccc(Br)n3)c3ccccc3c2=O)c(C)c1 [Example 101] |
| < 0.1 µM | Cc1ccc(C)c(C(=O)c2cn(Cc3cccc(Br)n3)c3ccccc3c2=O)c1 [Example 102] |
| < 0.1 µM | Cc1cccc(C(=O)c2cn(Cc3cccc(Br)n3)c3ccccc3c2=O)c1C [Example 103] |
| < 0.1 µM | Cc1cc(C)cc(C(=O)c2cn(Cc3cccc(Br)n3)c3ccccc3c2=O)c1 [Example 104] |
| < 0.1 µM | Cc1ccc(C(=O)c2cn(Cc3cccc(Br)n3)c3cccnc3c2=O)cc1C [Example 105] |
| < 0.1 µM | Cc1ccc2c(=O)c(C(=O)c3ccc(C)c(C)c3)cn(Cc3cccc(Br)n3)c2n1 [Example 106] |
| < 0.1 µM | Cc1cccc(Cn2cc(C(=O)c3ccc(C)c(C)c3)c(=O)c3ccc(C)nc32)n1 [Example 107] |
| < 0.1 µM | Cc1ccc(C(=O)c2cn(Cc3cccc(CCl)n3)c3ccccc3c2=O)cc1C [Example 108] |
| 0.5 to 20 µM | Cc1cc2c(=O)c(C(=O)c3ccc(C)c(C)c3)cn(Cc3cccc(Br)n3)c2c(C)n1 [Example 109] |
| 0.5 to 20 µM | Cc1cc(C(=O)c2cn(Cc3cccc(NC4CC4)n3)c3ccccc3c2=O)cnc1C [Example 110] |
| 0.1 to 0.5 µM | COCc1cccc(Cn2cc(C(=O)c3ccc(C)c(C)c3)c(=O)c3ccccc32)n1 [Example 111] |
| 0.1 to 0.5 µM | Cc1cc(C(=O)c2cn(Cc3cccc(Br)n3)c3ccccc3c2=O)c[n+]([O-])c1C [Example 112] |
| < 0.1 µM | O=C(c1ccc2c(c1)OCCO2)c1cn(Cc2cccc(Br)n2)c2ccccc2c1=O [Example 113] |
| < 0.1 µM | CC(C)(C)c1ccc(C(=O)c2cn(Cc3cccc(Br)n3)c3ccccc3c2=O)cc1 [Example 114] |
| < 0.1 µM | CCc1ccc(C(=O)c2cn(Cc3cccc(Br)n3)c3ccccc3c2=O)cc1 [Example 115] |
| 0.5 to 20 µM | Cc1ccc(C(=O)c2cn(Cc3cccc(Br)n3)c3c(C)ccnc3c2=O)cc1C [Example 116] |
| 0.5 to 20 µM | CNCc1cccc(Cn2cc(C(=O)c3ccc(C)c(C)c3)c(=O)c3ccccc32)n1 [Example 117] |

| IC50 | SMILES |
| --- | --- |
| 0.5 to 20 µM | Cc1ccc(C(=O)c2cn(Cc3cccc(CN(C)C)n3)c3ccccc3c2=O)cc1C [Example 118] |
| < 0.1 µM | Cc1ccc2c(n1)c(=O)c(C(=O)c1ccc(C)c(C)c1)cn2Cc1cccc(Br)n1 [Example 119] |
| < 0.1 µM | CN(C)c1ccc(C(=O)c2cn(Cc3cccc(Br)n3)c3ccccc3c2=O)cc1 [Example 120] |
| < 0.1 µM | Cc1ccccc1C(=O)c1cn(Cc2cccc(Br)n2)c2ccccc2c1=O [Example 121] |
| 0.1 to 0.5 µM | Cc1cccc(C(=O)c2cn(Cc3cccc(Br)n3)c3ccccc3c2=O)n1 [Example 122] |
| 0.5 to 20 µM | O=C(c1ccc(CN2CCOCC2)cc1)c1cn(Cc2cccc(Br)n2)c2ccccc2c1=O [Example 123] |
| < 0.1 µM | Cc1cccc(Cn2cc(C(=O)c3cnc(C)c(C)c3)c(=O)c3cc(F)ccc32)n1 [Example 124] |
| 0.1 to 0.5 µM | Cc1cc(C(=O)c2cn(Cc3cccc(CO)n3)c3ccccc3c2=O)cnc1C [Example 125] |
| < 0.1 µM | O=C(c1ccccc1C1OCCCO1)c1cn(Cc2cccc(Br)n2)c2ccccc2c1=O [Example 126] |
| 0.1 to 0.5 µM | COCCOc1ccc(C(=O)c2cn(Cc3cccc(Br)n3)c3ccccc3c2=O)cc1C [Example 127] |
| 0.5 to 20 µM | O=C(c1ncc(Br)cn1)c1cn(Cc2cccc(Br)n2)c2ccccc2c1=O [Example 128] |
| < 0.1 µM | CN(C)Cc1ccccc1C(=O)c1cn(Cc2cccc(Br)n2)c2ccccc2c1=O [Example 129] |
| < 0.1 µM | Cc1cccc(Cn2cc(C(=O)c3ccc(C)c(C)c3)c(=O)c3nc(C)ccc32)n1 [Example 130] |
| < 0.1 µM | O=C(c1ccc2c(c1)CCO2)c1cn(Cc2cccc(Br)n2)c2ccccc2c1=O [Example 131] |
| < 0.1 µM | CCOc1ccc(C(=O)c2cn(Cc3cccc(Br)n3)c3ccccc3c2=O)cc1C [Example 132] |
| < 0.1 µM | O=C(c1ccc(C(F)(F)F)nc1)c1cn(Cc2cccc(Br)n2)c2ccccc2c1=O [Example 133] |
| < 0.1 µM | Cc1cccc(Cn2cc(C(=O)c3ccc(C)c(C)c3)c(=O)c3ncccc32)n1 [Example 134] |
| 0.5 to 20 µM | O=C(c1cccc(C2OCCCO2)c1)c1cn(Cc2cccc(Br)n2)c2ccccc2c1=O [Example 135] |
| < 0.1 µM | COc1ccc(C(=O)c2cn(Cc3cccc(Br)n3)c3ccccc3c2=O)cc1C1OCCCO1 [Example 136] |
| 0.1 to 0.5 µM | O=C(c1ccc(C2OCCCO2)cc1)c1cn(Cc2cccc(Br)n2)c2ccccc2c1=O [Example 137] |
| < 0.1 µM | O=C(O)c1ccccc1C(=O)c1cn(Cc2cccc(Br)n2)c2ccccc2c1=O [Example 138] |

| IC50 | SMILES |
| --- | --- |
| 0.5 to 20 µM | O=C(c1cccc(C(F)(F)F)n1)c1cn(Cc2cccc(Br)n2)c2ccccc2c1=O [Example 139] |
| < 0.1 µM | COc1ccc(C(=O)c2cn(Cc3cccc(Br)n3)c3ccccc3c2=O)cc1OC [Example 140] |
| < 0.1 µM | COc1cccc(C(=O)c2cn(Cc3cccc(Br)n3)c3ccccc3c2=O)c1 [Example 141] |
| < 0.1 µM | Cc1ccc2c(=O)c(C(=O)c3ccc4c(c3)OCCO4)cn(Cc3cccc(Br)n3)c2n1 [Example 142] |
| < 0.1 µM | COc1ccc(C(=O)c2cn(Cc3cccc(Br)n3)c3nc(C)ccc3c2=O)cc1C [Example 143] |
| < 0.1 µM | COc1ccc(C(=O)c2cn(Cc3cccc(Br)n3)c3ccccc3c2=O)cc1 [Example 144] |
| < 0.1 µM | COc1ccc(C(=O)c2cn(Cc3cccc(Br)n3)c3ccccc3c2=O)cc1F [Example 145] |
| 0.1 to 0.5 µM | Cc1ccc2c(=O)c(C(=O)c3cnc(C)c(C)c3)cn(Cc3cccc(Br)n3)c2n1 [Example 146] |
| < 0.1 µM | Cc1nc(C(=O)c2cn(Cc3cccc(Br)n3)c3ccccc3c2=O)sc1C [Example 147] |
| < 0.1 µM | CC(C)c1ccc(C(=O)c2cn(Cc3cccc(Br)n3)c3ccccc3c2=O)cc1 [Example 148] |
| 0.1 to 0.5 µM | Cc1cccnc1C(=O)c1cn(Cc2cccc(Br)n2)c2ccccc2c1=O [Example 149] |
| 0.1 to 0.5 µM | Cc1ccnc(C(=O)c2cn(Cc3cccc(Br)n3)c3ccccc3c2=O)c1 [Example 150] |
| < 0.1 µM | Cc1ccc(C(=O)c2cn(Cc3cccc(Br)n3)c3ccccc3c2=O)nc1 [Example 151] |
| 0.5 to 20 µM | Cc1ncc(C(=O)c2cn(Cc3cccc(Br)n3)c3ccccc3c2=O)n1C [Example 152] |
| 0.1 to 0.5 µM | CNCc1ccc(C(=O)c2cn(Cc3cccc(Br)n3)c3ccccc3c2=O)cc1 [Example 153] |
| < 0.1 µM | CCc1ccc(C(=O)c2cn(Cc3cccc(Br)n3)c3ccccc3c2=O)cn1 [Example 154] |
| < 0.1 µM | COC(=O)c1ccccc1C(=O)c1cn(Cc2cccc(Br)n2)c2ccccc2c1=O [Example 155] |
| < 0.1 µM | COc1ccc(C(=O)c2cn(Cc3cccc(C)n3)c3ccccc3c2=O)cc1C [Example 156] |
| < 0.1 µM | Cc1cccc(Cn2cc(C(=O)c3ccc4c(c3)OCCO4)c(=O)c3ccccc32)n1 [Example 157] |
| < 0.1 µM | Cc1cccc(Cn2cc(C(=O)c3ccc(N(C)C)cc3)c(=O)c3ccccc32)n1 [Example 158] |
| < 0.1 µM | Cc1ccc(C(=O)c2cn(Cc3cccc(Br)n3)c3nc(C)c(C)cc3c2=O)cc1C [Example 159] |

| IC50 | SMILES |
| --- | --- |
| < 0.1 µM | COc1ccc(C(=O)c2cn(Cc3cccc(Br)n3)c3ncccc3c2=O)cc1C [Example 160] |
| < 0.1 µM | COc1ccc(C(=O)c2cn(Cc3cccc(C)n3)c3ncccc3c2=O)cc1 [Example 161] |
| < 0.1 µM | COc1ccc(C(=O)c2cn(Cc3cccc(C)n3)c3ncccc3c2=O)cc1C [Example 162] |
| < 0.1 µM | COc1ccc(C(=O)c2cn(Cc3cccc(C)n3)c3ncccc3c2=O)cc1F [Example 163] |
| < 0.1 µM | Cc1cccc(Cn2cc(C(=O)c3ccc4c(c3)OCCO4)c(=O)c3cccnc32)n1 [Example 164] |
| < 0.1 µM | Cc1cccc(Cn2cc(C(=O)c3ccc(C(C)C)cc3)c(=O)c3cccnc32)n1 [Example 165] |
| < 0.1 µM | COc1cc(C(=O)c2cn(Cc3cccc(C)n3)c3ncccc3c2=O)ccc1Cl [Example 166] |
| 0.5 to 20 µM | O=C(c1ccccc1-c1cnco1)c1cn(Cc2cccc(Br)n2)c2ccccc2c1=O [Example 167] |
| < 0.1 µM | CN(C)C(=O)c1ccccc1C(=O)c1cn(Cc2cccc(Br)n2)c2ccccc2c1=O [Example 168] |
| 0.5 to 20 µM | CNC(=O)c1ccccc1C(=O)c1cn(Cc2cccc(Br)n2)c2ccccc2c1=O [Example 169] |
| 0.5 to 20 µM | O=C(NC1CC1)c1ccccc1C(=O)c1cn(Cc2cccc(Br)n2)c2ccccc2c1=O [Example 170] |
| < 0.1 µM | O=C(c1ccccc1C(=O)N1CCC1)c1cn(Cc2cccc(Br)n2)c2ccccc2c1=O [Example 171] |
| < 0.1 µM | COc1cc(C(=O)c2cn(Cc3cccc(Br)n3)c3ncccc3c2=O)ccc1Cl [Example 172] |
| < 0.1 µM | COc1ccc(C(=O)c2cn(Cc3cccc(Br)n3)c3ncccc3c2=O)cc1 [Example 173] |
| < 0.1 µM | COc1ccc(C(=O)c2cn(Cc3cccc(Br)n3)c3ncccc3c2=O)cc1F [Example 174] |
| < 0.1 µM | O=C(c1ccc2c(c1)OCCO2)c1cn(Cc2cccc(Br)n2)c2ncccc2c1=O [Example 175] |
| < 0.1 µM | Cc1cccc(Cn2cc(C(=O)c3ccccc3Br)c(=O)c3ccccc32)n1 [Example 176] |
| 0.1 to 0.5 µM | Cc1cccc(Cn2cc(C(=O)c3ccc(C(F)(F)F)nc3)c(=O)c3ccccc32)n1 [Example 177] |
| < 0.1 µM | COc1ccc(C(=O)c2cn(Cc3cccc(Br)n3)c3ccccc3c2=O)c(C)c1 [Example 178] |
